Results taken from US5034317A, “Enzyme controlled release system and organic conjugate reactant” (priority 1987, dated 1991).

What was measured:
Format in all cases: biochemical
[1] = molecular target: Aspergillus oryzae β-galactosidase (Aspergillus oryzae, UniProt Q2UCU3); test: Enzymatic hydrolysis of conjugate reactants by Aspergillus oryzae β-galactosidase (release of displaceable ligand)
From the text: (§1) A major advantage provided by the organic conjugate compositions comprising the present invention is the selective ability to discriminate not only between different classes of enzymes, but also to distinguish the same enzyme obtained from different sources. […] Each of the individual, separately derived, beta-galactosidases were commercially obtained and empirically evaluated using the test protocol described previously in Example 6.

[2] = molecular target: T1, beef liver β-galactosidase (Bos taurus, UniProt Q58D55); test: Enzymatic hydrolysis of conjugate reactants by beef liver β-galactosidase; conditions: beef liver β-galactosidase 0.66 units; for Measured Rate of Reaction: 25° C., 10^-3 M
T1 sequence (Q58D55 28-653): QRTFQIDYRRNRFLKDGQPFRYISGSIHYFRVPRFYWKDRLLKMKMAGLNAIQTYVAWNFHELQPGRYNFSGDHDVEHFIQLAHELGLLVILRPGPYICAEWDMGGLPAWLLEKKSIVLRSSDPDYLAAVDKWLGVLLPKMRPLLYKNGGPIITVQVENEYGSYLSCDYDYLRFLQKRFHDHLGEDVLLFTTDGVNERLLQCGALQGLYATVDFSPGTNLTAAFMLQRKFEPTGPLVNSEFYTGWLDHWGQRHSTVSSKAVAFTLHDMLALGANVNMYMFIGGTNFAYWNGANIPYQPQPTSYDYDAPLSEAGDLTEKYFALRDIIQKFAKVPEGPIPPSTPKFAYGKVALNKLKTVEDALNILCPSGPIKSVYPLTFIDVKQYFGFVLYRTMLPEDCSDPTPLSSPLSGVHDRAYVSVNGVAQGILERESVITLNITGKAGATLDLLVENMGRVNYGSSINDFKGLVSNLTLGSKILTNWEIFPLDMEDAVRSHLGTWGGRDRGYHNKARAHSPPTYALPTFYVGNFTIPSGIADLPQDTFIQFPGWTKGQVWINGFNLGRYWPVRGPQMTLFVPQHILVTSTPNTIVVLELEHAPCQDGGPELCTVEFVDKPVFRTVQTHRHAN
From the text: as §1

E. coli β-galactosidase = E. coli β-galactosidase (Escherichia coli, UniProt P00722); test: Enzymatic hydrolysis of conjugate reactants by E. coli β-galactosidase; conditions: 25° C., 10^-3 M, E. coli β-galactosidase 7.5 units, pH 7.0 (Table 6)
Chain of E. coli β-galactosidase (P00722 whole entry): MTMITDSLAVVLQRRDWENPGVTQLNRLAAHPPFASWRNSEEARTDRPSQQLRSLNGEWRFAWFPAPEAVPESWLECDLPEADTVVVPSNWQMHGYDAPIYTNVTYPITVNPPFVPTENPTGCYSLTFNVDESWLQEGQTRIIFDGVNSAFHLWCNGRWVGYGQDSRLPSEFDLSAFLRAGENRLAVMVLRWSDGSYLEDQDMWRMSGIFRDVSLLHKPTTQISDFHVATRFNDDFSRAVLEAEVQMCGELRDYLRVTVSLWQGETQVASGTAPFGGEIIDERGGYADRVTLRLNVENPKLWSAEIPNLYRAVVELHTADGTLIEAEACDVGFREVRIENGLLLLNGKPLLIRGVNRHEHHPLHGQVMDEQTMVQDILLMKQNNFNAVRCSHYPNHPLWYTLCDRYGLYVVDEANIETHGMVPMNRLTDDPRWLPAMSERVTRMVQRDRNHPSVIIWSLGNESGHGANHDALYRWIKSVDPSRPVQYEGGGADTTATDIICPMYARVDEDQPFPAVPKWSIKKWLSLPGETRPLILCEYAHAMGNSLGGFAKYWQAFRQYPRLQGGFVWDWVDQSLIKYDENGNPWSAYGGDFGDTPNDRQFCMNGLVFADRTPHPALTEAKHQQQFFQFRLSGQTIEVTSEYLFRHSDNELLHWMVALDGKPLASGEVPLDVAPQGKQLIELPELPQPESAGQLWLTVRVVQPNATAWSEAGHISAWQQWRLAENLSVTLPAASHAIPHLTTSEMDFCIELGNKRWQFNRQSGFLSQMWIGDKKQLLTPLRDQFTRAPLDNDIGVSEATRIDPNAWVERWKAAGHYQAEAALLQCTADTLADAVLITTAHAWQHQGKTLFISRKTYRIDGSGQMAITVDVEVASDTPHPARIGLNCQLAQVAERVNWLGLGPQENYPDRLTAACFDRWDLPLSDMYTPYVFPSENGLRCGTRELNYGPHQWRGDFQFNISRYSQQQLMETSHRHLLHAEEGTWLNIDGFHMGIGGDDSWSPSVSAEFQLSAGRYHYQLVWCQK
From the text: as §1

[3] = molecular target: Aspergillus oryzae Beta galactosidase (Aspergillus oryzae, UniProt Q2UCU3); test: Spectrofluorimetric detection of 1.0×10^-12 M enzyme with conjugate substrate
Chain of Aspergillus oryzae Beta galactosidase (Q2UCU3 19-1005): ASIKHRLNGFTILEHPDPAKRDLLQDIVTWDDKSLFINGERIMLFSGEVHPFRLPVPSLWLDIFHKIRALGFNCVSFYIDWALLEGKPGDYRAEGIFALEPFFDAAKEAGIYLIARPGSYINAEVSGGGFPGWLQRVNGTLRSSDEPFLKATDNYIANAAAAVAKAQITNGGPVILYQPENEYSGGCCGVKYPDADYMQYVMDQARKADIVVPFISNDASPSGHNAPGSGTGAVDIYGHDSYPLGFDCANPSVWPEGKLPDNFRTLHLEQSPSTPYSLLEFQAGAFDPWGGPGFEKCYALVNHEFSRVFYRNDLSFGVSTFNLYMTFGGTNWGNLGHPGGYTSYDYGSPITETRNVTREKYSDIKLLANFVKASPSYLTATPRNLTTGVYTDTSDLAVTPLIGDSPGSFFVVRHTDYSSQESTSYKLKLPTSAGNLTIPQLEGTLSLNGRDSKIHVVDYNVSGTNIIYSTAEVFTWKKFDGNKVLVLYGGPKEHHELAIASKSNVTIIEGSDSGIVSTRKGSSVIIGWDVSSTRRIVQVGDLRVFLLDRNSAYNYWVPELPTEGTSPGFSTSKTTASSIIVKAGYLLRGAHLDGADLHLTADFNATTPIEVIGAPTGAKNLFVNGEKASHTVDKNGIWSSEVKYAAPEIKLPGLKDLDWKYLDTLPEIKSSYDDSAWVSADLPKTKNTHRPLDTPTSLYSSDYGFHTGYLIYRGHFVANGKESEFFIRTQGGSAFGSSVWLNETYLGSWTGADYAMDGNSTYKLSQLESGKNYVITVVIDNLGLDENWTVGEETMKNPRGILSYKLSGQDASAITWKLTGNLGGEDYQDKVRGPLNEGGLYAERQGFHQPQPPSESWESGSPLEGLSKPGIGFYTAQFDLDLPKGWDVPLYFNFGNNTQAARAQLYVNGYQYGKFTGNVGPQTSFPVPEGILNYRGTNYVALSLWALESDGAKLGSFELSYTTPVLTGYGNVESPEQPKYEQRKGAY
Description: Experimental conditions: Ten microliters of 1.0×10^-10 M Aspergillus oryzae Beta galactosidase (Cal Biochem) in 100 mM citrate phosphate, pH 5, with 0.05% w/v gelatin (Buffer A) was added to one milliliter of 1.6 mM compound 15 in Buffer A, yielding a final enzyme concentration of 1.0×10^-12 M. One half milliliter of this reaction mixture was monitored in a spectrofluorimeter in a two millimeter cuvette with instrument settings of 540 nm excitation, 580 emission and 5 nm slit widths. The signal was measured on a chart recorder at a speed of one centimeter per minute and at a sensitivity setting that gave fifteen percent deflection with 1.7×10^-7 M Sulforhodamine 101 in ethanol.

[4] = reactant 1.7 × 10^-5 M, temperature 36.5, 0.85 units Aspergillus oryzae β-galactosidase, pH 7.0 (Table 5)

Chain of Aspergillus oryzae β-galactosidase (Q2UCU3 19-1005): as above

Structure (SMILES)	Measured Rate of Reaction ([1]; 36.5° C., 1.7 × 10^-5 M, Asp. ory. β-galactosidase 0.85 units, pH 7.0 (Table 6)) [µmol/min]	Measured Rate of Reaction [1, 4] [µmol/min]	Measured Rate of Reaction (in words: hydrolysis after 4 days) ([2]; 36.5° C., 1.7 × 10^-5 M, pH 7.0, cell reads 'incomplete hydro-lysis after 4 days' (Table 6))	Measured Rate of Reaction ([1]; 25° C., 10^-3 M, Asp. ory. β-galactosidase 0.5 units, pH 5.5 (Table 6)) [µmol/min]	Measured Rate of Reaction ([1]; 25° C., 10^-3 M, Asp. ory. β-galactosidase 0.85 units, pH 7.0 (Table 6)) [µmol/min]	Measured Rate of Reaction ([1]; reactant 10^-3 M, temperature 25, 0.5 units Aspergillus oryzae β-galactosidase, pH 5.5 (Table 5)) [µmol/min]	Measured Rate of Reaction ([1]; reactant 10^-3 M, temperature 25, 0.85 units Aspergillus oryzae β-galactosidase, pH 7.0 (Table 5)) [µmol/min]	Measured Rate of Reaction ([1]; reactant 10^-3 M, temperature 25, 1.0 units Aspergillus oryzae β-galactosidase, pH 5.5 (Table 5)) [µmol/min]	Measured Rate of Reaction ([1]; reactant 10^-3 M, temperature 25, 4.2 units Aspergillus oryzae β-galactosidase, pH 7.0 (Table 5)) [µmol/min]	Measured Rate of Reaction (E. coli β-galactosidase) [µmol/min]	Measured Rate of Reaction ([2]; pH 5.5 (Table 6)) [µmol/min]	Measured Rate of Reaction ([2]; pH 7.0 (Table 6)) [µmol/min]	signal generated by the substrate solution alone (no enzyme) ([3]; 1.6 mM substrate in Buffer A pH 5, without enzyme, fluorescence over time)	increase in deflection (fluorescence signal) of the enzyme reaction mixture ([3]; 1.6 mM substrate, 1.0×10^-12 M enzyme, 100 mM citrate phosphate pH 5 with 0.05% gelatin, ten minute interval, 540 nm excitation, 580 emission)
CCN(C(=O)Oc1ccc2nc3ccc(=O)cc-3oc2c1)c1cc(S(=O)(=O)N(C)C)ccc1O[C@@H]1O[C@H](CO)[C@H](O)[C@H](O)[C@H]1O [Compound 8, 2-[N-ethyl-N-carbo (resorufinyl)]-4-dimeehylamino sulfonylphenyl-β-D-galactopyranoside]	0.0015	0.0015	incomplete	–	–	–	–	–	–	–	–	–	–	–
CCN(C(=O)Oc1ccc([N+](=O)[O-])cc1)c1cc(S(=O)(=O)N(C)C)ccc1O[C@@H]1O[C@H](CO)[C@H](O)[C@H](O)[C@H]1O [Compound 6, 2-[N-ethyl N-carbo (p-nitrophenoxy)]-4-dimethylamino sulfonyl phenyl-β-D-galactopyranoside]	–	0.0065	–	0.028	0.0091	0.028	0.009	0.066	0.039	0.00006	0.0094	0.00075	–	–
CCN(C(=O)Oc1ccc2nc3ccc(=O)cc-3oc2c1)c1cc(S(=O)(=O)N2CCN(C(=O)CCC(=O)O)CC2)ccc1O[C@@H]1O[C@H](CO)[C@H](O)[C@H](O)[C@H]1O [Compound 15]	–	–	–	–	–	–	–	–	–	–	–	–	No increase in the signal	one and one half percent increase in deflection
